Results on nine compounds are retold here after paper PMC5291098, “Molecular mutagenesis of ppGpp: turning a RelA activator into an inhibitor” (Scientific Reports, 2017).

A word on the stoichiometry N: it is a count of units in the complex or per binding partner.

Values joined by “and” are separate entries in the source; they are usually repeats but may differ in a detail not shown here. Equal values may be shown once. “Also recorded” adds a separate entry of the source. Read-outs that look alike come from different tables or passages of the source.

Experiment [1] deals with T1, E. coli RelA (Escherichia coli, UniProt P0AG20).
T1 construct: made in house
T1 sequence (P0AG20 whole entry): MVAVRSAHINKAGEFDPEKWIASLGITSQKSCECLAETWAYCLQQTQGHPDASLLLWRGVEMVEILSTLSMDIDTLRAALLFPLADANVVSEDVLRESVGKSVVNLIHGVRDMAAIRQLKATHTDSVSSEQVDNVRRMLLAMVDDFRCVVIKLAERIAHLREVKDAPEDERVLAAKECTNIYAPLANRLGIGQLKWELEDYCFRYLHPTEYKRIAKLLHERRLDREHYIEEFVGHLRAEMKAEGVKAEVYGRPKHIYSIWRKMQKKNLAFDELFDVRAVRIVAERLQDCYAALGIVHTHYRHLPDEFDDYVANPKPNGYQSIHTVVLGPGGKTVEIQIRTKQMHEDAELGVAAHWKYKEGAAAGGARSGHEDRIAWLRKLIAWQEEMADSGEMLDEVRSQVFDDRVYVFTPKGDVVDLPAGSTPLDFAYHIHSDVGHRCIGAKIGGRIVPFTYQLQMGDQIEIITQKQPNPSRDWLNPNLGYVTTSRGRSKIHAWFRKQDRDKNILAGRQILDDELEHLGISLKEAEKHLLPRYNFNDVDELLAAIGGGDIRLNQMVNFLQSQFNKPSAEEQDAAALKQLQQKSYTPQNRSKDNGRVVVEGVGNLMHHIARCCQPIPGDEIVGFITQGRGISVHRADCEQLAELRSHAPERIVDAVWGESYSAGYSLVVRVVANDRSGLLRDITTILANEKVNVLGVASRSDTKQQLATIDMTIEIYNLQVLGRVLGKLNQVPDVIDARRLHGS
Details: method as in PMID 20483622. The settings on record: read-out: IC50 / concentration for 50% inhibition of E. coli RelA; in the test tube; cited from earlier work.

In the next experiment the test system is ΔywaCΔyjbM B. subtilis. Briefly: Growth of ΔywaCΔyjbM B. subtilis in valine drop-out S7 medium (functional test for Rel inhibition). In kind it is cell-based, Bacillus subtilis. The conditions noted are these: up to 1 mM (0 to 1000 µM). The source says: Finally, we tested the three of our most promising inhibitors (DR-4250, DR-M014 and DR-5163) for RSH inhibition in bacterial culture. For this we used the Gram-positive bacterium B. subtilis due to its better uptake of compounds as compared to Gram-negative species such as E. coli[50]. The functional test for RSH inhibition relied on the auxotrophy of (p)ppGpp-deficient (ppGpp^0) B. subtilis for methionine and branched-chain amino acids valine, leucine and isoleucine. The B. subtilis RSH repertoire consists of one multi-domain ribosome-associated enzyme Rel and two SAS, YwaC and YjbM[3][52]. Because the SAS RelQEf is refractory to inhibition by our test compounds (Supplementary Figure 2), we used a B. subtilis strain lacking SASs (ΔywaCΔyjbM), in which the sole source of (p)ppGpp is Rel[53]. Defined S7 medium[54] lacking valine supports the growth of ΔywaCΔyjbM B. subtilis, but not the ppGpp^0 stain (Supplementary Figure 5). […] This is indicative of the test compounds failing to inhibit Rel and thereby rendering the strain phenotypically ppGpp^0 (Supplementary Figure 5). A lack of cellular uptake is a likely explanation. […]
Growth assays with Bacillus subtilis BSB1 wild type strain
SAS deletion and ppGpp0 strain of B. subtilis5 were grown in S7 liquid medium6 except for amino acid requirements, which were met as described elsewhere 7. On 96-well plate, 90 µl of B subtilis starter culture was mixed with 10 µL of compound dilution (in 5 mM Tris pH 7.2) so that final OD600 was 0.025 (l = 1 cm).
Following incubation was without shaking at 37°C and growth was monitored with Tecan Infinite M200 at OD600 (raw OD600 values are reported). B. subtilis starter culture was prepared as follows. Late exponential phase cells in S7, with full set of amino acids, were diluted ≈10-fold in S7 lacking either valine or lysine so that, after addition of 8% DMSO, OD600 was 0.25. Next, cell suspensions were aliquoted, frozen in liquid nitrogen, and stored at -80°C. Just before the experiment, cells were thawed on ice and appropriate amount of media was […]
DywaC DyjbM BSB1 B. subtilis ppGpp0. BSB1 B. subtilis wild type strain as grown on S7 synthetic media8 drop-out media lacking valine which abolishes the growth of ppGpp0 (Drel DywaC DyjbM) strain due to valine auxotrophy (dashed line). […]
inhibit the Rel and render the strain ppGpp0.

Experiment [2] has as its target T2, E. faecalis SAS RelQ (RelQEf) (Enterococcus faecalis, UniProt Q830U9). Briefly: Inhibition of E. faecalis SAS RelQ ppGpp synthesis. In kind it is biochemical. The conditions noted are these: concentrations up to 1 mM. The source says:
In E. coli, ppGpp is synthesized by the multi-domain RSHs RelA and SpoT, however, numerous single-domain RSHs – Small Alarmone Synthetases (SAS) – are widely distributed across bacterial taxa[3]. […] Therefore we tested the effects of DR-4250, DR-M014 and DR-5163 on RelQEf activity (Supplementary Figure 2).
(§1) Detailed description of experimental procedures can be found in Supplementary Text. Biochemical assays utilize in vitro translation[58] and stringent response[15] systems from E. coli purified components. Experiments were performed in HEPES:Polymix[58] buffer with either 5 (for enzymatically assembled initiation complexes) or 15 mM (for vacant 70 S, as well as non-enzymatically assembled programmed ribosomes) Mg^2+. Expression and purification of E. faecalis RelQ was performed as per Gaca (2015) and colleagues. GTPase and ppGpp synthesis were followed using TLC separation and radiochemical detection of ^3H-labelled nucleotides. Multiple round in vitro transcription assays were performed as per Bernardo et al.[49] with minor modifications. Inhibition efficiency (IC50) was calculated using 4-parameter logistic model (Hill equation) as per Sebaugh[60].
RelQ activity0.4 RelQ activity0.4 RelQ activity0.4
Supplementary Figure 2 | Inhibition of E. faecalis SAS RelQ by DR-4250, DR-
M014 and DR-5163 is inefficient. The reaction mixture contains 0.25 µM RelQEf,
300 µM [3H] GDP, 0.5 mg/ml BSA, 100 µM ppGpp, 1 mM ATP in Hepes:Polymix at […]

A further experiment relates to T3, E. coli EF-G.
T3 construct: made in house
In kind it is biochemical. On the procedure:
(§2) Thin layer chromatography (TLC) analysis of nucleotide mixtures
Both EF-G GTPase reaction and ppGpp synthesis by RelA were followed by TLC analysis followed by scintillation counting according to Mechold and colleagues, with modifications1. Time points from the reaction mixtures (5 μl, see below for details) were quenched by addition 4 μl 70% formic acid supplemented with a cold nucleotide standard used for UV-shadowing (10 mM GDP and 10 mM GTP) and spotted on PEI-TLC plates (Macherey-Nagel). TLC was run in buffer, plates dried, cut into sections guided by UV-shadowing and 3H radioactivity was quantified by scintillation counting in Optisafe-3 (Fisher) scintillation cocktail on Perkin Elmer Tricarb 2810TR counter. Conversion of substrate to product was quantified as described in Shyp et al. (2012)2. […]
GTPase assays with E. coli EF-G
The reaction mixture contained 0.5 μM 70S, 0.1 μM EF-G, in HEPES:Polymix (25 mM Hepes 7.5/ 1 mM DTT / 5 mM Mg2+) pre-incubated for 2 minutes at 37°C prior to addition of 300 μM [3H]GTP substrate (Hartman), after which time points (5 μl) taken, quenched with formic acid and analyzed by TLC (see above). […]

Experiment [3] concerns the target T1, E. coli RelA. Briefly: Inhibition of [3H]GDP to [3H]ppGpp conversion by E. coli RelA activated by vacant 70S ribosomes and 100 μM ppGpp. In kind it is biochemical. The conditions noted are these: for IC50: 30 nM RelA, 0.5 μM vacant 70S, 100 μM ppGpp; for nHill (Hill coefficient of the titration fit): Supplementary Table 1, 4-parameter logistic model; for Inhibitory effect on RelA (in words): concentrations up to 1 mM. On the procedure:
For the initial characterization of compounds, we followed the inhibition of [^3H] GDP conversion to [^3H] ppGpp catalyzed by E. coli RelA in a simplified system in which RelA’s activity was induced by vacant 70S ribosomes and 100 μM of ppGpp[15]. Unlabeled ppGpp was added to reaction mixtures in order to linearize the kinetics of [^3H] ppGpp synthesis due to an activating effect on the RelA enzyme. We used a targeted library of 69 nucleotides belonging to several structural classes: ‘true’ ppGpp analogues; Relacin and its derivatives; pyrrolidine, azetidine, piperidine and acyclic phosphonates. Chemical structures of tested compounds and titrations in the RelA:70S:ppGpp system are presented in Supplementary Table 1.
as §1, §2
Both EF-G GTPase reaction and ppGpp synthesis by RelA were followed by TLC analysis followed by scintillation counting according to Mechold and colleagues, with modifications1. Time points from the reaction mixtures (5 μl, see below for details) were quenched by addition 4 μl 70% formic acid supplemented with a cold nucleotide standard used for UV-shadowing (10 mM GDP and 10 mM GTP) and spotted on PEI-TLC plates (Macherey-Nagel). TLC was run in buffer, plates dried, cut into sections guided by UV-shadowing and 3H radioactivity was quantified by scintillation counting in Optisafe-3 (Fisher) scintillation cocktail on Perkin Elmer Tricarb 2810TR counter. Conversion of substrate to product was quantified as described in Shyp et al. (2012)2.
Enzymatic assays with E. coli RelA
Screening: all experiments were performed in HEPES:Polymix, Mg2+ of 5 mM, 37 […]
μM ppGpp was pre-incubated at 37° C for 2 min and then reaction started by addition of 1 mM ATP, time points (5 μl) taken, quenched with formic acid and analyzed by TLC. Inhibition efficiency (IC50) was calculated using 4-parameter logistic model (Hill equation) as per Sebaugh (2011)3. […]

The target of experiment [4] is T2, E. faecalis SAS RelQ (RelQEf). The conditions noted are these: found earlier; cited from earlier work.
Experiment [5] deals with T4, E. coli σ70-RNAP holoenzyme.
T4 construct: purchased Epicentre
The experiment is described as follows: Multiple round in vitro transcription by σ70-RNAP (rrnB P1 and rna1 promoters). In kind it is biochemical, Escherichia coli. The conditions noted are these: concentrations up to 5 mM; regardless of presence or absence of 2 μM DksA and 100 μM ppGpp.
Protocol: Next, we tested their effects on RNAP. […] We used multiple round in vitro transcription driven from the rrnB P1, a well-characterized ppGpp/DksA inhibited promoter, as described earlier[49]. The assays were performed in the presence and absence of 2 μM DksA and/or 100 μM ppGpp (Fig. 5a).
Effect of inhibitors on rrnB P1 (−66 to +50) promoter transcription by RNAP. Graphs depicting inhibitor (0, 0.025, 0.05, 0.15, 0.4 and 0.6 mM) titrations performed at 30 °C in T-buffer with 0.5 nM template (σ^70-rrnB P1 promoter (pRLG6214)) and 5 nM σ^70-RNAP, in presence or absence of 100 μM ppGpp and/or 2 μM DksA. Error bars represent standard deviations of linear regression estimates, each experiment was performed at least three times.
The assays were performed as per Bernardo et al. (2006)4 with minor modifications. Reactions were carried out in T-buffer (50 mM Tris-HCl pH 7.5, 100 mM NaCl, 10 mM MgCl2, 1 mM dithiothreitol, 0.1 mM EDTA and 0.275 mg of BSA per ml) at 30°C. Inhibitors were titrated to final concentrations of 0, 0.025, 0.05, 0.15, 0.4 and 0.6 mM. E. coli s 70-RNAP holoenzyme (Epicentre, final concentration 5 nM) and template plasmid DNA containing s70-rrnB P1 promoter, (pRLG6214, final concentration 0.5 nM) was used for all experiments. Before initiation of transcription, E. coli s70-RNAP holoenzyme and T buffer were incubated at 30°C for 5 min. Above mix was added to predispensed mixture of inhibitor and the template plasmid DNA containing s70-rrnB P1 promoter (pRLG6214), incubated for further 20 min to initiate open complex formation. 2.5 µl of a mixture of ATP (ﬁnal concentration 0.5 mM), GTP and CTP (ﬁnal concentration 0.2 mM each), UTP (ﬁnal concentration 0.08 mM) and [a-32P]-UTP (5 µCi at > 3000 Ci/mmol, PerkinElmer) was added to initiate transcription by RNAP. After 7 min, 1 µl heparin (0.125 mg/ml ﬁnal concentration) was added to the reaction mixture to prevent re-initiation and further incubated for 5 min to allow completion of initiated transcripts. Transcription was terminated by addition of formamide loading buffer and samples were electrophoresed on a 7M urea-5% polyacrylamide gel and quantified by phosphorimaging.

The test system of a further experiment is Bacillus subtilis. Set-up: method as in PMID 20483622. The conditions noted are these: mM-range concentrations; cited from earlier work.
For experiment [6], the system named is transcription or translation in E. coli reconstituted systems. Set-up: method as in PMID 7047215. The conditions noted are these: cited from earlier work.
For experiment [7], the target named is 70S initiation complexes programmed with mRNA(MF) (E. coli) (UniProt P0AG67). Briefly: co-sedimentation; spin-down assay: 2 uM RelA, 1 uM 70S initiation complexes programmed with mRNA(MF), with or without 3 uM deacylated tRNA-Phe and 500 uM DR-4250 or DR-M014; 37 C for 15 min; 30% sucrose cushion, 70,000 r.p.m., 25 min, 12 C; pellets on 10% SDS-PAGE; the stoichiometry is told for the sample with A-site deacylated tRNA-Phe.

Setting [8] is: 0.3 mM [3H]GDP, 1 mM ATP, read-out: IC50.

T2 sequence (Q830U9 entry or part of it): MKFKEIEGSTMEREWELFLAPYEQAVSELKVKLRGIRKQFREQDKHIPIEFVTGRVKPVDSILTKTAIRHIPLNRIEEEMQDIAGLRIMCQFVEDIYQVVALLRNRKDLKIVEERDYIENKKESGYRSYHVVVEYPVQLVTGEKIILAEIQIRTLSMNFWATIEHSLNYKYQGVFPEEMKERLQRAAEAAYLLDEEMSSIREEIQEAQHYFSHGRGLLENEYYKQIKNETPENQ
Chain of Escherichia coli RelA (P0AG20 whole entry): as the sequence (P0AG20 whole entry) above

As to `Nc1nc2c(ncn2[C@H]2C[C@H](OP(=O)(O)CP(=O)(O)O)[C@@H](COP(=O)(O)CP(=O)(O)O)O2)c(=O)[nH]1` [(10), 2′-deoxyguanosine-3′-5′-di(methylene bisphosphonate)], on E. coli RelA [1], the IC50 is ~1 mM and 1 mM.
Consider `Nc1nc2c(ncn2CCNC(=O)P(=O)(O)O)c(=O)[nH]1` [DR-5163], for which, in the experiment on ΔywaCΔyjbM B. subtilis, the “Effect on growth of ΔywaCΔyjbM B. subtilis (in words)” value is “did not affect bacterial growth; also recorded: does not affect the growth”. The “Effect on RelQEf activity (in words)” value in experiment [2] is “inefficient; also recorded: almost inactive”. The “Inhibitory effect on EF-G GTPase activity (in words)” value with E. coli EF-G (up to 1 mM) was “no inhibitory effect”. For the same compound, the IC50 on E. coli RelA [3] (setting [8]) was determined as 0.245 ± 0.039 mM; on E. coli RelA [3] (5 mM Mg2+, 37 °C, no unit beside the value, titration axis in mM, read-out: IC50 (Supplementary Table 1, example titration)), 0.25 ± 0.05 mM. Besides, the “nHill (Hill coefficient of the titration fit)” value (“nHill” for short) at E. coli RelA [3] turned out to be 1.3 ± 0.26.
Consider `CC(C)C(=O)Nc1nc2c(ncn2[C@H]2C[C@H](OC(=O)NCC(=O)NCC(=O)O)[C@@H](COC(=O)NCC(=O)NCC(=O)O)O2)c(=O)[nH]1` [Relacin, reference compound], for which, in [4], the “Sensitivity of RelQEf to Relacin (in words)” value is on record as “virtually insensitive”. Besides, in experiment [5], the “Effect on rrnB P1 transcription by RNAP (in words)” value was “mild inhibitory effect”. Also, the “Inhibitory effect on EF-G GTPase activity (in words)” value in the experiment on E. coli EF-G (up to 5 mM) is reported as “no inhibitory effect”. Besides, the “Biological effect on Bacillus subtilis (in words)” value in the experiment on Bacillus subtilis is “has a biological effect”. At E. coli RelA [3] (setting [8]), the IC50 is 0.84 ± 0.2 mM. In addition, at E. coli RelA [3], the “nHill” value is 1.8 ± 0.001.
Consider `Nc1nc2c(ncn2[C@@H]2O[C@@H]3COP(=O)(O)O[C@H]4[C@@H](O)[C@H](n5cnc6c(N)ncnc65)O[C@@H]4COP(=O)(O)O[C@H]3[C@H]2O)c(=O)[nH]1` [c-di-GAMP, reference compound], for which the “Inhibitory effect on RelA (in words)” value on E. coli RelA [3] (RelA:70S:ppGpp system) was “None of the compounds showed any inhibitory effect”.
In the case of `Nc1nc2c(ncn2[C@@H]2O[C@@H]3COP(=O)(O)O[C@H]4[C@@H](O)[C@H](n5cnc6c(=O)[nH]c(N)nc65)O[C@@H]4COP(=O)(O)O[C@H]3[C@H]2O)c(=O)[nH]1` [c-di-GMP, reference compound], on E. coli RelA [3] (RelA:70S:ppGpp system), the “Inhibitory effect on RelA (in words)” value is listed as “None of the compounds showed any inhibitory effect”.
On to `Nc1nc2c(ncn2C2CC(OC(=O)NCC(=O)NCC(=O)O)C(COC(=O)NCC(=O)NCC(=O)O)O2)c(=O)[nH]1` (centres unmarked) [di-iBu-Relacin], for which, on E. coli RelA [3] (RelA:70S:ppGpp system), the “Activity against RelA (in words)” value was “compromises its activity against RelA”.
As for `Nc1ncnc2c1ncn2C1OC(COP(=O)(O)OP(=O)(O)O)C(OP(=O)(O)OP(=O)(O)O)C1O` (centres unmarked) [ppApp], the “Inhibitory effect on EF-G GTPase activity (in words)” value in the experiment on E. coli EF-G (up to 100 μM) is given as “no inhibitory effect”. Further, the “Inhibitory effect on transcription or translation (in words)” value in experiment [6] is “does not have a pronounced inhibitory effect”. Besides, at E. coli RelA [3] (setting [8]), the IC50 amounted to 0.0245 ± 0.0035 mM. Further, the “nHill” value on E. coli RelA [3] is 0.7 ± 0.1. For the same compound, on E. coli RelA [3] (ppGpp up to 100 μM, ppApp 50 µM-1 mM, thio-ppGpp 100 µM (Supplementary Figure 1)), the “Activation of RelA's synthetic activity (in words)” value is on record as “do not activate; also recorded: neither ppApp nor 6-thio-ppGpp activate”.
Consider `Nc1nc2c(ncn2C2OC(COP(=O)(O)OP(=O)(O)O)C(OP(=O)(O)OP(=O)(O)O)C2O)c(=O)[nH]1` (centres unmarked) [ppGpp, guanosine tetraphosphate], for which, at E. coli RelA [3] (setting [8]), the IC50 worked out at 0.72 ± 0.44 mM.
As to “Escherichia coli RelA (from UniProt P0AG20 1-744) (enzyme)”, in experiment [7], the stoichiometry N was 1.
